Measurements from US20210275522A1, “PHARMACEUTICAL COMPOSITIONS AND USE THEREOF” (priority 2018, published 2021).
“And” between values parts separate entries of the source, which are not always exact repeats. Equal values may be shown once.

Legend:
Type in all cases: in vivo, SCID mice
[1] = tested on: human U2932 DLBCL xenograft; assay: Subcutaneous human U2932 DLBCL xenograft model, combination with dinaciclib (SZ-EF-37-2019); settings: for antitumor activity (in words) / RTV @ D21 (Mean + SEM) / T/C(%)@D21: Compound 1 30 mg/kg, dinaciclib 20 mg/kg; for mRECIST: SD (stable disease): animals with SD / animals in group; for RTV @ D21 (Mean + SEM) / T/C(%)@D21: day 21
Method: SKM-1 human Myelodysplastic Syndromes (MDS) were maintained in vitro as suspension cultures in RPMI 1640 medium supplemented with 20% fetal bovine serum, 100 U/mL penicillin and 100 µg/mL streptomycin. Cells were maintained at 37° C. in an atmosphere of 5% CO2 in air and passaged twice weekly. Tumor cells growing in an exponential growth phase were harvested and counted for tumor inoculation. Each mouse was inoculated subcutaneously at the right flank region with OCI-AML-3 tumor cells (5×10^6) in 0.2 mL of PBS with 50% matrigel, SKM-1 tumor cells (3×10^7) in 0.2 mL of PBS with 50% matrigel, U2932 tumor cells (1×10^7) in 0.2 mL of PBS with 50% matrigel, for tumor development. Tumor volumes were measured twice weekly in two dimensions using a caliper, and the volume was expressed in mm^3 using the formula: […] Relative tumor volume (RTV) was calculated using the following formula: […] Synergy score was calculated using the following formula described in Clarke R. Issues in experimental design and endpoint analysis in the study of experimental cytotoxic agents in vivo in breast cancer and other models[J]. Breast Cancer Research & Treatment, 1997, 46(2-3):255-278, which is incorporated by reference in its entirety: Synergy score=(([…]); where A: response to treatment A; B: response to treatment B; C: response to vehicle control; AB: combination of treatment A and B. […] Standard NCI procedures were used to calculate tumor parameters. Percent tumor growth inhibition (% T/C) was calculated as the mean RTV of treated tumors (T) divided by the mean RTV of control tumors (C)×100%. […] To confirm the synergistic antitumor effect between Compound 1 and CDK9 inhibitor in DLBCL, we applied combination therapy with Compound 1 plus CDK9 inhibitor dinaciclib in the same human U2932 DLBCL xenograft model, which was established according to embodiment 2.

[2] = tested on: human OCI-AML-3 AML xenograft; assay: Subcutaneous human OCI-AML-3 AML xenograft model (SZ-EF-42-2018); settings: Compound 1 50 mg/kg q.d×15 d p.o., alvocidib 2.5 mg/kg q.d×15 d i.p.; for RTV@ D15 / T/C(%)@ D15: day 15
Method: SKM-1 human Myelodysplastic Syndromes (MDS) were maintained in vitro as suspension cultures in RPMI 1640 medium supplemented with 20% fetal bovine serum, 100 U/mL penicillin and 100 µg/mL streptomycin. Cells were maintained at 37° C. in an atmosphere of 5% CO2 in air and passaged twice weekly. Tumor cells growing in an exponential growth phase were harvested and counted for tumor inoculation. Each mouse was inoculated subcutaneously at the right flank region with OCI-AML-3 tumor cells (5×10^6) in 0.2 mL of PBS with 50% matrigel, SKM-1 tumor cells (3×10^7) in 0.2 mL of PBS with 50% matrigel, U2932 tumor cells (1×10^7) in 0.2 mL of PBS with 50% matrigel, for tumor development. After tumor cell inoculation, the animals were checked daily for morbidity and mortality. At the time of routine monitoring, the animals were checked for any effects of tumor growth and treatments on normal behavior such as mobility, visual estimation of food and water consumption, body weight gain/loss (body weights were measured twice weekly), eye/hair matting and any other abnormal effect. Death and observed clinical signs were recorded on the basis of the numbers of animals within each subset. The entire procedures of dosing as well as tumor and body weight measurement were conducted in a Laminar Flow Cabinet. Tumor volumes were measured twice weekly in two dimensions using a caliper, and the volume was expressed in mm^3 using the formula: Tumor Volume (mm^3)=0.5a×b^2 Relative tumor volume (RTV) was calculated using the following formula: RTV=Vt/V1 Synergy score was calculated using the following formula described in Clarke R. Issues in experimental design and endpoint analysis in the study of experimental cytotoxic agents in vivo in breast cancer and other models[J]. Breast Cancer Research & Treatment, 1997, 46(2-3):255-278, which is incorporated by reference in its entirety: Synergy score=(([…]); where A: response to treatment A; B: response to treatment B; C: response to vehicle control; AB: combination of treatment A and B. Synergy score>1, synergistic; score=1, additive; score<1, antagonistic. Standard NCI procedures were used to calculate tumor parameters. Percent tumor growth inhibition (% T/C) was calculated as the mean RTV of treated tumors (T) divided by the mean RTV of control tumors (C)×100%. […] Alvocidib is a flavonoid alkaloid CDK9 kinase inhibitor, which is the first CDKi under clinical development for the treatment of acute myeloid leukemia. In this study, efficacy of combination treatment with Compound 1 and alvocidib was evaluated in human OCI-AML-3 AML xenograft model (Study No. SZ-EF-42-2018). Dose treatments were started when the mean tumor volume reached 95 mm^3, the dose treatment start day was defined as day 1.

[3] = tested on: human SKM-1 MDS xenograft; assay: Subcutaneous human SKM-1 MDS xenograft model (SZ-EF-59-2018); settings: Compound 1 50 mg/kg q.d×21 d p.o., alvocidib 2.5 mg/kg q.d×21 d i.p.; for RTV@ D21 / T/C(%)@D21: day 21
Method: (§1) SKM-1 human Myelodysplastic Syndromes (MDS) were maintained in vitro as suspension cultures in RPMI 1640 medium supplemented with 20% fetal bovine serum, 100 U/mL penicillin and 100 µg/mL streptomycin. Cells were maintained at 37° C. in an atmosphere of 5% CO2 in air and passaged twice weekly. Tumor cells growing in an exponential growth phase were harvested and counted for tumor inoculation. Each mouse was inoculated subcutaneously at the right flank region with OCI-AML-3 tumor cells (5×10^6) in 0.2 mL of PBS with 50% matrigel, SKM-1 tumor cells (3×10^7) in 0.2 mL of PBS with 50% matrigel, U2932 tumor cells (1×10^7) in 0.2 mL of PBS with 50% matrigel, for tumor development. After tumor cell inoculation, the animals were checked daily for morbidity and mortality. At the time of routine monitoring, the animals were checked for any effects of tumor growth and treatments on normal behavior such as mobility, visual estimation of food and water consumption, body weight gain/loss (body weights were measured twice weekly), eye/hair matting and any other abnormal effect. Death and observed clinical signs were recorded on the basis of the numbers of animals within each subset. The entire procedures of dosing as well as tumor and body weight measurement were conducted in a Laminar Flow Cabinet. Tumor volumes were measured twice weekly in two dimensions using a caliper, and the volume was expressed in mm^3 using the formula: Tumor Volume (mm^3)=0.5a×b^2 Relative tumor volume (RTV) was calculated using the following formula: RTV=Vt/V1 Synergy score was calculated using the following formula described in Clarke R. Issues in experimental design and endpoint analysis in the study of experimental cytotoxic agents in vivo in breast cancer and other models[J]. Breast Cancer Research & Treatment, 1997, 46(2-3):255-278, which is incorporated by reference in its entirety: Synergy score=(([…]); where A: response to treatment A; B: response to treatment B; C: response to vehicle control; AB: combination of treatment A and B. Synergy score>1, synergistic; score=1, additive; score<1, antagonistic. Standard NCI procedures were used to calculate tumor parameters. Percent tumor growth inhibition (% T/C) was calculated as the mean RTV of treated tumors (T) divided by the mean RTV of control tumors (C)×100%. […] In this study, efficacy of combination treatment with Compound 1 and alvocidib was evaluated in human SKM-1 MDS xenograft model (Study No. SZ-EF-59-2018). Dose treatments were started when the mean tumor volume reached 125 mm^3, the dose treatment start day was defined as day 1.

[4] = tested on: human U2932 DLBCL xenograft; assay: Subcutaneous human U2932 DLBCL xenograft model, combination with alvocidib (SZ-EF-62-2018); settings: for antitumor activity (in words) / RTV@ D19 / T/C(%)@D19: Compound 1 50 mg/kg q.d×19 d p.o., alvocidib 2.5 mg/kg q.d×7 d and q.w×2 w i.p.; for RTV@ D19 / T/C(%)@D19: day 19
Method: as §1, with “U2932 DLBCL” for “SKM-1 MDS”, “SZ-EF-62-2018).” for “SZ-EF-59-2018).”

| SMILES | antitumor activity (in words) [1] | mRECIST: PD (progressive disease) ([1]; animals with PD / animals in group) | mRECIST: SD (stable disease) [1] | RTV @ D21 (Mean + SEM) [1] | T/C(%)@D21 [1] [%] | antitumor activity (in words) [2] | RTV@ D15 [2] | T/C(%)@ D15 [2] [%] | antitumor activity (in words) [3] | RTV@ D21 [3] | T/C(%)@D21 [3] | antitumor activity (in words) [4] | RTV@ D19 [4] | T/C(%)@D19 [4] [%] | T/C(%)@D19 ([4]; listed as alvocidib) [%] | occurrence of CR or PR ([4]; single arm) |
| --- | --- | --- | --- | --- | --- | --- | --- | --- | --- | --- | --- | --- | --- | --- | --- | --- |
| CCc1cnn2c(NCc3ccc[n+]([O-])c3)cc(N3CCCC[C@H]3CCO)nc12 [Dinaciclib, dinaciclib] | no antitumor activity | 2/5 | 3/5 | 3.74 ± 0.58 | 71.55 | – | – | – | – | – | – | – | – | – | – | – |
| CN1CC[C@H](c2c(O)cc(O)c3c(=O)cc(-c4ccccc4Cl)oc23)[C@H](O)C1 [Alvocidib, alvocidib] | – | – | – | – | – | moderate antitumor activity | 14.0 ± 1.5 | 58.8 | no antitumor activity | 17.2 ± 2.1 | 78.5% | antitumor activity | 1.19 ± 0.27 | 25.2 | 30.9 | no CR or PR |
| O=C(NS(=O)(=O)c1ccc(NC[C@H]2COCCO2)c([N+](=O)[O-])c1)c1ccc(N2CCN(CC3=C(c4ccc(Cl)cc4)CC4(CCC4)CC3)CC2)cc1Oc1cnc2[nH]ccc2c1 [Compound 1, (S)—N-((4-(((1,4-dioxan-2-yl)methyl)amino)-3-nitrophenyl)sulfonyl)-2-((1H-pyrrolo[2,3-b]pyridin-5-yl)oxy)-4-(4-((6-(4-chlorophenyl)spiro[3.5]non-6-en-7-yl)methyl)piperazin-1-yl)benzamide] | moderate antitumor activity | – | 5/5 SD | 2.79 ± 0.22 | 53.26 | no antitumor activity | 28.6 ± 2.3 | 120.2 | moderate antitumor activity | 14.7 ± 1.5 | 68.3% and 67.3% | antitumor activity | 1.46 ± 0.17 | 30.9 | – | – |
